These results are taken from patent publication US20040254344A1, “Amino acid conjugates providing for sustained systemic concentrations of gaba analogues” (priority 2001, published 2004).

For series [1] the following is noted: rat; for Cmax PD (Cmax of prodrug in plasma): oral prodrug 25 mg-equivalents of gabapentin per kg; for Cmax of gabapentin in plasma: single oral dose 25 mg/kg gabapentin or 25 mg-equivalents of gabapentin per kg. As to the method:
The pharmacokinetics of the prodrugs prepared in Examples 1 and 3 were examined in rats. […] Animals were fasted overnight prior to dosing and until 4 hours post-dosing. Serial blood samples were obtained over 24 hours following dosing and blood was processed for plasma by centrifugation. Plasma samples were stored at −80° C. until analyzed.
Plasma (50 μL) was precipitated by addition of […] of methanol and supernatant was injected directly onto the LC/MS/MS system. […] Following oral administration of gabapentin prodrugs, concentrations of prodrug and gabapentin in plasma were monitored over 24 hours.

Series [2] can be described thus: Caco-2 homogenate S9 stability. The format is in vitro ADME. The note with it: incubation with Caco-2 homogenate for 1 hour, 5 μM, 37° C. As for the experimental part: Tissue homogenates and plasma samples were obtained from commercial sources (Pel-Freez Biologicals, Rogers, Ark., and GenTest Corporation, Woburn, Mass.). Stability of prodrugs toward the specific enzyme aminopeptidase was also evaluated by incubation with the purified enzyme. Experimental conditions used for the in vitro studies were as follows. Each preparation was incubated with test compound at 37° C. for one hour. Aliquots (50 μL) were removed at 0, 30, and 60 min and quenched with 0.1% trifluoroacetic acid in acetonitrile. Samples were then centrifuged and analyzed for the presence of prodrug and released gabapentin by LC/MS/MS as described below.
Concentrations of prodrug or gabapentin in tissue extracts were determined by direct injection onto an API 2000 LC/MS/MS equipped with an Agilent 1100 binary pump and autosampler. Separation was achieved using a 3.5 μm Zorbax Ellipse XDB-C8 4.4×150 mm column heated to 45° C. during the analysis. The mobile phases were: 0.1% formic acid in water (A) and 0.1% formic acid in acetonitrile (B). The gradient condition was: 2% B for 0.5 min, increasing to 90% B in 2.0 min, maintained for 2.5 min and returning to 2% B for 2 min. A TurboIonSpray source was used on the API 2000. The analysis was performed in the positive ion mode and MRM transitions of 172.0/137.2 were used in the analysis of gabapentin (2). Ten microliters of the sample extracts were injected. Peaks were integrated using Analyst quantitation software. The method was linear for (2) over the concentration range 0.002 to 2.5 μg/mL respectively.
Caco-2 Homogenate S9 Stability: Caco-2 cells were grown for 21 days prior to harvesting. Culture medium was removed and cell monolayers were rinsed and scraped off into ice-cold 10 mM sodium phosphate/0.15 M potassium chloride, pH 7.4. Cells were lysed by sonication at 4° C. using a probe sonicator. Lysed cells were then transferred into 1.5 mL centrifuge vials and centrifuged at 9000 g for 20 min at 4° C. The resulting supernatant (Caco-2 cell homogenate S9 fraction) was aliquoted into 0.5 mL vials and stored at −80° C. until used.
For stability studies, prodrug (5 μM) was incubated in Caco-2 homogenate S9 fraction (0.5 mg protein per mL) for 60 min at 37° C. Concentrations of intact prodrug and released drug were determined at zero time and 60 minutes using LC/MS/MS.

The conditions of series [3]: monkey, sodium salt, 10 mg-equivalents of gabapentin per kg.
For series [4] the following is noted: monkey; for increase in gabapentin exposure (as measured by AUC) on a 7.5-fold increase in dose / AUC G (AUC of gabapentin) / Cmax G (Cmax of gabapentin): oral; for increase in gabapentin exposure (as measured by AUC) on a 7.5-fold increase in dose: 10 to 75 mg-eq/kg.
Protocol: The prodrug was administered orally to four adult male monkeys (approximate body weight of 6.5 kg) via an oral nasogastric tubeas solutions in water or PEG 400. The dose was 10 or 75 mg-equivalents of gabapentin per kg body weight. Animals were fasted overnight before the study and for 4 hours post-dosing. Blood samples (1.0 mL) were obtained via femoral or cephalic venipuncture at intervals over 48 hours after oral dosing. Blood was processed immediately for plasma and plasma was frozen at −80° C. until analyzed. […] Oral bioavailability was determined by comparison of area under the gabapentin concentration versus time curve (AUC) following oral administration of prodrug or intravenous administration of an equimolar dose of gabapentin hydrochloride.
The conditions of series [5]: rat, oral and i.v. dosing of prodrug.
The next series concerns PEPT2. The note with it: tested at 1 mM on oocytes expressing PEPT2; normalised to 1 mM glycyl-sarcosine. As to the method: (§1) Rat and human PEPT1 and PEPT2 expressing CHO cell lines were prepared as described in PCT Application WO01/20331. Gabapentin-containing dipeptides were evaluated for interaction with the peptide transporters using a radiolabeled substrate uptake assay in a competitive inhibition format, as described in PCT Application WO01/20331. Transport-induced currents were also measured in Xenopus oocytes transfected with rat and human PEPT1 and PEPT2.
(§2) RNA preparation: Rat and human PEPT1 and PEPT2 transporter cDNAs were subdcloned into a modified pGEM plasmid that contains 5′ and 3′ untranslated sequences from the Xenopus β-actin gene. These sequences increase RNA stability and protein expression. Plasmid cDNA was linearized and used as template for in vitro transcription (Epicentre Technologies transcription kit, 4:1 methylated:non-methylated GTP).
(§3) Xenopus oocyte isolation. Xenopus laevis frogs were anesthetized by immersion in Tricaine ([…] in deionized water) for 15 min. […]
(§4) Electrophysiology measurements. Transport currents were measured 2-14 days after injection, using a standard two-electrode electrophysiology set-up (Geneclamp 500 amplifier, Digidata 1320/PCLAMP software and ADInstruments hardware and software were used for signal acquisition).

The test system of the next series is PEPT1. To be noted: tested at 1 mM on oocytes expressing PEPT1; normalised to 1 mM glycyl-sarcosine. As to the method:
as §1, §2, §3, §4

Where two headings read alike, the source gives them in different places.

Consider `N[C@@H](Cc1ccc(C(F)(F)F)cc1)C(=O)NCC1(CC(=O)O)CCCCC1` [1aa, L-4-Trifluoromethylphenylalanine-Gabapentin], for which, in series [1], the “Cmax PD (Cmax of prodrug in plasma)” value was 30000 ng/mL. Further, in series [2], the “% of prodrug surviving intact” value was found to be 97%.
Regarding `NC(Cc1ccc(F)cc1F)C(=O)NCC1(CC(=O)O)CCCCC1` [1ap, D, L-2,4-Difluorophenylalanine-Gabapentin], the “Cmax PD (Cmax of prodrug in plasma)” value in series [1] came to 278000 ng/mL. The “% of prodrug surviving intact” value in series [2] worked out at 90%.
As for `N[C@@H](Cc1ccc(Br)cc1)C(=O)NCC1(CC(=O)O)CCCCC1` [1ah, L-4-Bromophenylalanine-Gabapentin], in series [3] (oral), the “AUC G (AUC of gabapentin)” value was 29100 ± 3500 ng·h/mL, the “AUC PD (AUC of prodrug)” value turned out to be 18900 ± 6500 ng·h/mL, the “Cmax G (Cmax of gabapentin)” value came out at 3800 ± 1100 ng/mL and the “Cmax PD (Cmax of prodrug)” value was 14900 ± 5300 ng/mL. The “F (oral bioavailability as gabapentin)” value in series [3] came to 49.1±6.8%. Besides, in series [1], the “Cmax PD (Cmax of prodrug in plasma)” value was 103000 ng/mL and the “Cmax of gabapentin in plasma” value came to 6100 ng/mL. Further, the “% of prodrug surviving intact” value in series [2] is reported as 79%.
Regarding `N[C@@H](CO)C(=O)NCC1(CC(=O)O)CCCCC1` [1ax, L-Serine-Gabapentin], the “increase in gabapentin exposure (as measured by AUC) on a 7.5-fold increase in dose” value in series [4] was determined as 5.1 fold. In series [5], the “fraction absorbed intact following oral administration” value was 15-20%.
Regarding `N[C@@H](Cc1cccc2ccccc12)C(=O)NCC1(CC(=O)O)CCCCC1` [1l, L-1-Naphthylalanine-Gabapentin], in series [1], the “Cmax PD (Cmax of prodrug in plasma)” value came out at 500 ng/mL. For the same compound, in series [2], the “% of prodrug surviving intact” value stood at 29%.
Consider `NCC1(CC(=O)O)CCCCC1` [compound 2, gabapentin], for which the “Cmax of gabapentin in plasma” value in series [1] amounted to 10300 ng/mL. In series [4] (10 mg-eq/kg), the “F (oral bioavailability as gabapentin)” value was 53.9±17.3%, the “AUC G (AUC of gabapentin)” value was 32100 ± 10400 ng·h/mL and the “Cmax G (Cmax of gabapentin)” value stood at 3700 ± 1600 ng/mL. Further, in series [4] (75 mg-eq/kg), the “F (oral bioavailability as gabapentin)” value is listed as 22.9±1.1%, the “AUC G (AUC of gabapentin)” value amounted to 102000 ± 4900 ng·h/mL and the “Cmax G (Cmax of gabapentin)” value worked out at 10800 ± 1300 ng/mL. Also, the “increase in gabapentin exposure (as measured by AUC) on a 7.5-fold increase in dose” value in series [4] is 3.2 fold.
Turning to `N[C@@H](Cc1ccccc1F)C(=O)NCC1(CC(=O)O)CCCCC1` [1ab, L-2-Fluorophenylalanine-Gabapentin], the “fraction absorbed intact following oral administration” value in series [5] is reported as “about 60%”.
For the compound `CC(C)C[C@H](CNC(=O)[C@@H](N)Cc1ccc(Br)cc1)CC(=O)O` [compound 5, L-4-Bromophenylalanine-Pregabalin], the “PEPT-specific currents above background” value in the series with PEPT2 and with PEPT1 was “at least 5 % of Imax for Gly-Sar” throughout.
In the case of `N#Cc1cccc(C[C@H](N)C(=O)NCC2(CC(=O)O)CCCCC2)c1` [1al, L-3-Cyanophenylalanine-Gabapentin], the “Cmax PD (Cmax of prodrug in plasma)” value in series [1] amounted to 600 ng/mL. Besides, the “% of prodrug surviving intact” value in series [2] is 46%.
Regarding “L-Tyrosine-(O-2-Bromobenzyloxycarbonyl)-Gabapentin [4d]”, the “% of prodrug surviving intact” value in series [2] was found to be 3%.
On to `N[C@@H](Cc1cc(F)cc(F)c1)C(=O)NCC1(CC(=O)O)CCCCC1` [1ao, L-3,5-Difluorophenylalanine-Gabapentin], for which the “Cmax PD (Cmax of prodrug in plasma)” value in series [1] worked out at 2900 ng/mL. Further, the “% of prodrug surviving intact” value in series [2] came to 48%.
In the same order, the values of `N#Cc1ccc(C[C@H](N)C(=O)NCC2(CC(=O)O)CCCCC2)cc1` [1am, L-4-Cyanophenylalanine-Gabapentin] are 22400 ng/mL and 90%.
